Common to all, as to format: functional
In experiment [1] the test system is Botrytis cinerea. The experiment is described as follows: Fungicidal activity against Botryotinia fuckeliana grown on compound supplemented artificial media assessed as control of disease or pathogen at 2 ppm measured after 5 to 14 days by artificial media assay.
Experiment [2] deals with Botrytis cinerea. The experiment is described as follows: Fungicidal activity against Botryotinia fuckeliana grown on compound supplemented artificial media assessed as control of disease or pathogen at 20 ppm measured after 5 to 14 days by artificial media assay.
Experiment [3] has as its system Alternaria solani. The experiment is described as follows: Fungicidal activity against Alternaria solani grown on compound supplemented artificial media assessed as control of disease or pathogen at 20 ppm measured after 5 to 14 days by artificial media assay.
Experiment [4] relates to Alternaria solani. The experiment is described as follows: Fungicidal activity against Alternaria solani grown on compound supplemented artificial media assessed as control of disease or pathogen at 2 ppm measured after 5 to 14 days by artificial media assay.
In experiment [5] the test system is Pythium dissimile. The experiment is described as follows: Fungicidal activity against Pythium dissimile grown on compound supplemented artificial media assessed as control of disease or pathogen at 2 ppm measured after 5 to 14 days by artificial media assay.
Experiment [6] deals with Pythium dissimile. The experiment is described as follows: Fungicidal activity against Pythium dissimile grown on compound supplemented artificial media assessed as control of disease or pathogen at 20 ppm measured after 5 to 14 days by artificial media assay.
The subject of experiment [7] is Uromyces viciae-fabae. The experiment is described as follows: Fungicidal activity against Uromyces viciae-fabae infected compound pre-treated bean leaf pieces assessed as control of disease or pathogen at 100 ppm measured after 5 to 14 days by leaf-piece assay.
Experiment [8] is described as follows: Fungicidal activity against Zymoseptoria tritici infected on compound pre-treated wheat leaf pieces assessed as control of disease or pathogen at 100 ppm measured after 5 to 14 days by leaf-piece assay.

As for `c1ccc2c(-c3cnco3)c[nH]c2c1`, the Activity in experiment [1] was found to be 0%; in experiment [2] it was 0%; in experiment [3], 77%; in experiment [4] it was 0%; in experiment [5], 0%; in experiment [6] it was 99%. Further, the Activity in experiment [7] and in experiment [8] was 0% throughout.
In the case of `Brc1ncoc1-c1c[nH]c2ccccc12`, the Activity was determined as 0% in experiment [1]; 99% in experiment [2]; 99% in experiment [3]; 0% in experiment [4]; 0% in experiment [5]; 99% in experiment [6]. Further, the Activity in experiment [7] came out at 77%; in experiment [8], 0%.
Regarding `Cn1cc(-c2ocnc2Cl)c2ccccc21`, the Activity in experiment [1], in experiment [2], in experiment [3], in experiment [4], in experiment [5] and in experiment [6] was 0% each time. Further, the Activity is on record as 77% in experiment [7] and 0% in experiment [8].
As to `CCn1cc(-c2ocnc2Cl)c2ccccc21`, the Activity in experiment [1] was found to be 0%; in experiment [2], 0%; in experiment [3], 0%; in experiment [4], 0%; in experiment [5] it was 0%; in experiment [6], 55%. Moreover, the Activity in experiment [7] came out at 99%; in experiment [8], 0%.
Consider `C=CCn1cc(-c2ocnc2Cl)c2ccccc21`, for which the Activity in experiment [1], in experiment [2], in experiment [3], in experiment [4], in experiment [5] and in experiment [6] was 0% each time. For the same compound, the values for the Activity in experiment [7] and in experiment [8] were 99% and 0%, respectively.
As to `CC(=O)n1cc(-c2ocnc2Cl)c2ccccc21`, the Activity in experiment [1], in experiment [2], in experiment [3], in experiment [4], in experiment [5] and in experiment [6] was 0% each time. In addition, the Activity in experiment [7] and in experiment [8] was 0% throughout.
Consider `CCC(=O)n1cc(-c2ocnc2Cl)c2ccccc21`, for which the Activity in experiment [1], in experiment [2], in experiment [3], in experiment [4], in experiment [5] and in experiment [6] was 0% in each case. The Activity in experiment [7] and in experiment [8] was 0% in each case.
For `Clc1ncoc1-c1c[nH]c2ccccc12` [Streptochlorin], the Activity in experiment [1] turned out to be 0%; in experiment [2] it was 99%; in experiment [3] it was 99%; in experiment [4], 99%; in experiment [5] it was 0%; in experiment [6] it was 99%. In addition, the Activity in experiment [7] was determined as 55%; in experiment [8] it was 36%.

For the origin of these results see ChEMBL document CHEMBL3046856, “Synthesis and fungicidal activity of novel pimprinine analogues” (2012).
